Patent publication US6803195B1, “Facile detection of cancer and cancer risk based on level of coordination between alleles” (Ramot At Tel-Aviv University Ltd., priority 1999, dated 2004)
Several values for one entry are separate records, joined by “and”; a condition that tells them apart may be missing. Equal entries are not always repeated.

B1: GCSF: hematopoietic growth factor given to donors of bone marrow cells to enhance the number of stem cells (protein, UniProt P09919 31-207, looked up)
Granulocyte …: TPLGPASSLPQSFLLKCLEQVRKIQGDGAALQEKLVSECATYKLCHPEELVLLGHSLGIPWAPLSSCPSQALQLAGCLSQLHSGLFLYQGLLQALEGISPELGPTLDTLQLDVADFATTIWQQMEELGMAPALQPTQGAMPAFASAFQRRAGGVLVASHLQSFLEVSYRVLRHLAQP

How the values were obtained:
[1] = tested on: CAD samples (hematological malignancy patients at diagnosis); test: FISH replication assay, cultures of hematological malignancy patients (CAD) with chromatin modifiers (Example 10); assay type: cell-based, human; settings: for frequency (%) of SD cells, Mean: N = 10; for replication pattern in cells derived from cancer patients: cultured cells with chromatin modifier
Excerpt: (§1) Cultures were set up from 44 healthy individuals (hereafter called CON) and 20 hematological malignancy patients at diagnosis (hereafter termed CAD). For 20 of the CON samples and all of the CAD samples peripheral in addition to the setting up cultures in the regular growth medium, cultures were set up in medium containing 5-azacytidine (10^−7M; Sigma, USA; hereafter referred to as AZA) a demethylating agent. In addition, cultures from 6 CON and 10 CAD samples were set up in medium containing a deacetylating agents, either Trichostatin A (33 nM; Sigma, USA; hereafter referred to as TSA) or Sodium Butirate (1 nM; Sigma, USA; hereafter referred to as NB), two well described acetylating agents.
(§2) These samples were hybridized with two commercial probes: the AML1 probe (LSI 21, […]) and the α-satellite probe specific for centromere 17 (32-130017, hereafter marked as CEN17). The results are summarized in Table 1 giving the number of samples hybridized with each probe (N), Mean and standard deviation (stdev) as well as the p value obtained using two tailed student's t-test (Microsoft Office 98).

[2] = tested on: CON samples (healthy individuals); test: FISH replication assay, cultures of healthy individuals (CON) with chromatin modifiers (Example 10); assay type: cell-based, human; settings: cultured cells with chromatin modifier
Excerpt: as §1, §2

[3] = tested on: peripheral blood lymphocytes (PBL); test: FISH replication assay on PBL of healthy donors treated with GCSF; assay type: in vivo, human; settings: five days after GCSF treatment; for % SD after GCSF treatment, Average: PBL of healthy donors, n = 6 as printed; for % SD after GCSF treatment: PBL of individual healthy donors
Excerpt: Healthy subjects treated with GCSF. Seven first degree relatives (sibling or parent) of patients suffering from hematological malignancies who were candidates for donating peripheral blood stem cells agreed to participate in the study. PBL were collected before treatment with GCSF and five days after treatment, on the day of collecting cells for transplantation. Six donors were male, one female.
Comparison of synchrony in healthy subjects, cancer patients and GCSF-treated healthy donors. Bone marrow and PBL samples were obtained with informed consent from healthy control subjects and patients as detailed hereinabove. Samples were analyzed by FISH as described hereinabove.
It is believed that the SD cell percentage values are enhanced for a limited time and return to normal after cessation of GCSF treatment. The samples tested here were obtained five days after GCSF treatment. This period is usually chosen for obtaining cells for transplantation, because at the effect of GCSF is maximal five days after administration.

Molecule	frequency (%) of SD cells, Mean ([1]; AML1 locus, CAD + NB (1 nM))	frequency (%) of SD cells, Mean ([1]; CEN17 locus, CAD + NB (1 nM))	replication pattern in cells derived from cancer patients [1]	replication pattern observed in normal genomes [2]	frequency (%) of SD cells, Mean ([1]; AML1 locus, CAD + TSA (33 nM))	frequency (%) of SD cells, Mean ([1]; CEN17 locus, CAD + TSA (33 nM))	% SD after GCSF treatment, Average ([3]; 21q22 probe (D21S55)) [%]	% SD after GCSF treatment ([3]; 21q22 probe (D21S55))	% SD after GCSF treatment, Average ([3]; TP53 probe) [%]	% SD after GCSF treatment ([3]; TP53 probe)
CCCC(=O)[O-].[Na+] [NB, Sodium Butirate]	Mean = 23.2%	Mean = 19.6%	attenuate the replication pattern presented in cells derived from cancer patients towards the normal	not affecting						
CC(/C=C/C(=O)NO)=C\[C@@H](C)C(=O)c1ccc(N(C)C)cc1 [TSA, Trichostatin A]			attenuate the replication pattern presented in cells derived from cancer patients towards the normal	not affecting	Mean = 24.2%	Mean = 20.3%				
B1							35.42	32% and 43% and 39% (2×) and 31% and 29% and 35%	36.57	34% (2×) and 41% and 38% and 36% (2×) and 37%
